# From ChEMBL document CHEMBL3621157, “Design, synthesis and biological evaluation of novel 1,2,4-triazolo and 1,2,4-triazino[4,3-a]quinoxalines as potential anticancer and antimicrobial agents” (2015)
# Legend:
# Format in all cases: functional
# SW-620 = assay: Growth inhibition of human SW620 cells incubated for 48 hrs by sulforhodamine B assay; details: SW-620, 48 h
# [1] = Growth inhibition of human SF539 cells incubated for 48 hrs by sulforhodamine B assay; details: SF-539, 48 h
# IGROV-1 = assay: Growth inhibition of human IGROV1 cells incubated for 48 hrs by sulforhodamine B assay; details: IGROV-1, 48 h
# HOP-62 = assay: Growth inhibition of human HOP62 cells incubated for 48 hrs by sulforhodamine B assay; details: HOP-62, 48 h
# Escherichia coli = assay: Antimicrobial activity against Escherichia coli ATCC 11775 incubated at 37 degC for 24 hrs by cup diffusion method
# Bacillus subtilis = assay: Antimicrobial activity against Bacillus subtilis ATCC 6633 incubated at 37 degC for 24 hrs by cup diffusion method
# HL-60(TB) [2] = assay: Growth inhibition of human HL-60(TB) cells at 10 uM incubated for 48 hrs by sulforhodamine B assay; details: HL-60, 48 h, read-out: GI
# T47D = assay: Growth inhibition of human T47D cells incubated for 48 hrs by sulforhodamine B assay
# HCT-116 = assay: Growth inhibition of human HCT116 cells incubated for 48 hrs by sulforhodamine B assay; details: HCT-116, 48 h
# CCRF-CEM = assay: Growth inhibition of human CCRF-CEM cells incubated for 48 hrs by sulforhodamine B assay
# NCI-H460 = assay: Growth inhibition of human NCI-H460 cells incubated for 48 hrs by sulforhodamine B assay; details: NCI-H460, 48 h
# A549 = assay: Growth inhibition of human A549 cells incubated for 48 hrs by sulforhodamine B assay; details: A549, 48 h
# SK-OV-3 = assay: Growth inhibition of human SKOV3 cells incubated for 48 hrs by sulforhodamine B assay; details: SK-OV-3, 48 h
# [3] = Growth inhibition of human Hs 578T cells incubated for 48 hrs by sulforhodamine B assay
# [4] = Growth inhibition of human MOLT4 cells at 10 uM incubated for 48 hrs by sulforhodamine B assay; details: MOLT-4, 48 h, read-out: GI
# NCI-H226 = assay: Growth inhibition of human NCI-H226 cells incubated for 48 hrs by sulforhodamine B assay; details: NCI-H226, 48 h
# Pseudomonas aeruginosa = assay: Antimicrobial activity against Pseudomonas aeruginosa ATCC 10145 incubated for 24 hrs by two-fold serial broth dilution method; details: ATCC 10145, 24 h
# MDA-MB-231 = assay: Growth inhibition of human MDA-MB-231 cells incubated for 48 hrs by sulforhodamine B assay; details: MDA-MB-231, 48 h
# UACC-257 = assay: Growth inhibition of human UACC257 cells incubated for 48 hrs by sulforhodamine B assay; details: UACC-257, 48 h
# UACC-62 = assay: Growth inhibition of human UACC62 cells incubated for 48 hrs by sulforhodamine B assay; details: UACC-62, 48 h
# UO-31 = assay: Growth inhibition of human UO31 cells incubated for 48 hrs by sulforhodamine B assay; details: UO-31, 48 h
# U-251 [5] = assay: Growth inhibition of human U251 cells at 10 uM incubated for 48 hrs by sulforhodamine B assay; details: U-251, 48 h, read-out: GI
# [6] = Growth inhibition of human SF295 cells incubated for 48 hrs by sulforhodamine B assay; details: SF-295, 48 h
# A498 = assay: Growth inhibition of human A498 cells at 10 uM incubated for 48 hrs by sulforhodamine B assay; details: A498, 48 h, read-out: GI
# [7] = Growth inhibition of human RPMI8226 cells at 10 uM incubated for 48 hrs by sulforhodamine B assay; details: RPMI-8226, 48 h, read-out: GI
# K562 [8] = assay: Growth inhibition of human K562 cells at 10 uM incubated for 48 hrs by sulforhodamine B assay; details: K562, 48 h, read-out: GI
# [9] = Growth inhibition of human HOP92 cells at 10 uM incubated for 48 hrs by sulforhodamine B assay; details: HOP-92, 48 h, read-out: GI
# K562 [10] = assay: Growth inhibition of human K562 cells incubated for 48 hrs by sulforhodamine B assay; details: K562, 48 h
# [11] = Growth inhibition of human BT549 cells incubated for 48 hrs by sulforhodamine B assay; details: BT-549, 48 h
# U-251 [12] = assay: Growth inhibition of human U251 cells incubated for 48 hrs by sulforhodamine B assay; details: U-251, 48 h
# Candida albicans = assay: Antimicrobial activity against Candida albicans DSM 70014 incubated for 48 hrs by two-fold serial broth dilution method; details: DSM 70014, 48 h
# HCT-15 = assay: Growth inhibition of human HCT15 cells at 10 uM incubated for 48 hrs by sulforhodamine B assay; details: HCT-15, 48 h, read-out: GI
# [13] = Growth inhibition of human RXF393 cells incubated for 48 hrs by sulforhodamine B assay; details: RXF 393, 48 h
# KM12 = assay: Growth inhibition of human KM12 cells at 10 uM incubated for 48 hrs by sulforhodamine B assay; details: KM12, 48 h, read-out: GI
# [14] = Growth inhibition of human RPMI8226 cells incubated for 48 hrs by sulforhodamine B assay; details: RPMI-8226, 48 h
# HL-60(TB) [15] = assay: Growth inhibition of human HL-60(TB) cells incubated for 48 hrs by sulforhodamine B assay; details: HL-60, 48 h
# [16] = Growth inhibition of human HCC2998 cells incubated for 48 hrs by sulforhodamine B assay; details: HCC 2998, 48 h
# Malme-3M = assay: Growth inhibition of human MALME-3M cells incubated for 48 hrs by sulforhodamine B assay
# SNB-75 = assay: Growth inhibition of human SNB75 cells incubated for 48 hrs by sulforhodamine B assay; details: SNB-75, 48 h
structure (smiles),measurement,setting,value
Clc1ccccc1-c1nnc2c(Cc3ccccc3)nc3ccccc3n12,GI50,SW-620,43.4 µM
same,GI50,[1],24.2 µM
same,GI50,IGROV-1,27.7 µM
same,GI50,HOP-62,12.4 µM
same,inhibition zone (IZ),Escherichia coli,10 mm
same,inhibition zone (IZ),Bacillus subtilis,12 mm
same,inhibition of growth at 10 µM,HL-60(TB) [2],46.4%
same,GI50,T47D,6.82 µM
same,GI50,HCT-116,3.21 µM
same,GI50,CCRF-CEM,7.11 µM
same,GI50,NCI-H460,3.49 µM
same,GI50,A549,8.77 µM
same,GI50,SK-OV-3,23.9 µM
same,GI50,[3],9.66 µM
same,inhibition of growth at 10 µM,[4],60.4%
same,GI50,NCI-H226,9.96 µM
same,MIC,Pseudomonas aeruginosa,50 µg/mL
same,GI50,MDA-MB-231,6.24 µM
same,GI50,UACC-257,34.3 µM
same,GI50,UACC-62,7.96 µM
same,GI50,UO-31,25 µM
same,inhibition of growth at 10 µM,U-251 [5],57.2%
same,GI50,[6],12.3 µM
same,inhibition of growth at 10 µM,A498,61.1%
same,inhibition of growth at 10 µM,[7],63.8%
same,inhibition of growth at 10 µM,K562 [8],78.6%
same,inhibition of growth at 10 µM,[9],50.1%
same,GI50,K562 [10],5.55 µM
same,GI50,[11],6.72 µM
same,GI50,U-251 [12],5.18 µM
same,MIC,Candida albicans,100 µg/mL
same,inhibition of growth at 10 µM,HCT-15,55.4%
same,GI50,[13],8.45 µM
same,inhibition of growth at 10 µM,KM12,51.1%
same,GI50,[14],5.64 µM
same,GI50,HL-60(TB) [15],32.5 µM
same,GI50,[16],42.8 µM
same,GI50,Malme-3M,23.8 µM
same,GI50,SNB-75,6.12 µM
